Experimental data as given in US20030229132A1, “Small molecule modulators of apoptosis” (priority 2002, published 2003).

How the values were obtained:
[1] = test system: caspase-3 (DEVDase activity); test: DEVDase fluorescence screen in HeLa cell S-100 cytoplasmic extracts; assay type: biochemical; settings: in vitro fluorescence assay, HeLa S-100 extracts with cyto c
Text: In order to identify compounds that modulate apoptosis, a chemical genetics approach was utilized to screen for molecules that target components of the apoptosis pathway (see, T. U. Mayer et al., Science 286, 971-4 (1999)). An in vitro screen using cytoplasmic extracts was adapted for apoptosis to a 96-well format and used to test an in-house library of ˜3500 compounds (see, T. Fernandes-Alnemri et al, Proc Natl Acad Sci USA 93, 7464-9 (1996); X. Liu, C. N. Kim, J. Yang, R. Jemmerson, X. Wang, Cell 86, 147-57 (1996); L. M. Leoni et al., Proc Natl Acad Sci USA 95, 9567-71 (1998)). Briefly, individual compounds were added to HeLa cell S-100 cytoplasmic extracts at a final concentration of 1 mM and apoptosis was induced by adding bovine heart cyto c (HeLa cell cytoplasmic extracts were prepared according to previously published reports (see, P. Li et al., Cell 91, 479-89 (1997)). Compounds were distributed into 96-well microtiter plates at a final concentration of 1 mM. To each well was added 250 μg of total protein from cytoplasmic extracts in HEB buffer (50 mM Hepes pH 7.4, 50 mM KCl, 5 mM EGTA, 2 mM MgCl), with 2 mM DTT, 2 μM cyto c, and 0.5 μM DEVD-AFC substrate in a total of 150 μL. Plates were incubated at 37° C. and fluorescence was read in a LJL Biosystems plate reader at 10 min intervals). Activation of caspase-3 was monitored by cleavage of a fluorogenic substrate, Asp-Glu-Val-Asp-7-amino-4-trifluoromethylcoumarin (DEVDase activity). As designed, the DEVDase fluorescence screen encompasses the release of cyto c from the mitochondria to the activation of caspase-3. Possible targets include cyto c, Apaf-1, caspase-9, caspase-3, inhibitors of apoptosis (IAPs), and possible unidentified components present in the cytosol.

Jurkat cells [2] = test: Caspase-3 activation in Jurkat cells (immunoblot); assay type: cell-based, human; settings: 50 μM compound or 1 μM staurosporin, 6 hr
Method: (C) DNA fragmentation analysis. […] Cell viability assay.
Compounds were then tested for their ability to induce apoptosis in live cells. The ability of the compounds to activate caspase-3 in a Jurkat cell line was first assayed. […] This same pattern was seen when we assayed for the cleavage of poly (ADP-ribose) polymerase (PARP), a cellular substrate of caspases-3 and -7 (see, D. W. Nicholson, Cell Death Differ 6, 1028-42 (1999)). Upon apoptosis, PAR-P is cleaved from a 116 kD to an 85 kD protein.

Jurkat cells [3] = test: DNA fragmentation analysis in Jurkat cells; assay type: cell-based, human; settings: 50 μM compound or 1 μM staurosporin, 8 hr

Structure (SMILES) | activation of DEVDase activity [1] | processing of procaspase-3 (Jurkat cells [2]) | DNA fragmentation (Jurkat cells [3])
O=C1C(=O)N(Cc2ccc(Cl)c(Cl)c2)c2ccccc21 [Compound 2] | strongly activated DEVDase activity | significant processing | induced DNA fragmentation
O=C(NCc1ccc(Cl)c(Cl)c1)OC1CCc2ccccc21 (stereo not drawn) [Compound 4] | no activity | less processing | less pronounced effect
O=C(NCc1ccc(Cl)c(Cl)c1)OC1CCc2ccccc21 (stereo not drawn) [Compound 5] | strongly activated DEVDase activity | significant processing | induced DNA fragmentation
